Assay results taken from ChEMBL document CHEMBL4739717, “Methods of treating cartilage disorders through inhibition of clk and dyrk” (2020).

Experiments:
[1] = Effect on Wnt signaling pathway in human SW480 cells harbouring TCF/LEF luciferase reporter gene and SP5-Luc reporter gene incubated for 36 to 48 hrs by luminescence assay; format: cell-based
[2] = Inhibition of IL1-beta induced MMP3 expression levels in human chondrocytes assessed as MMP3 levels incubated for 2hrs followed by IL1-beta stimulation and measured after overnight incubation by LANCE assay; format: functional, cell-based; settings: Chondrocyte
[3] = target: Dual specificity tyrosine-phosphorylation-regulated kinase 1A (Homo sapiens, UniProt Q13627); experiment: Inhibition of recombinant DYRK1A (unknown origin) using Ser/Thr 18 peptide as substrate incubated for 1 hr in presence of ATP by FRET assay
[4] = target: Dual specificity protein kinase CLK3 (Homo sapiens, UniProt P49761); experiment: Inhibition of recombinant CLK3 (unknown origin) using Ser/Thr 18 peptide as substrate incubated for 1 hr in presence of ATP by FRET assay
Chain of Dual specificity protein kinase CLK3 (P49761 whole entry): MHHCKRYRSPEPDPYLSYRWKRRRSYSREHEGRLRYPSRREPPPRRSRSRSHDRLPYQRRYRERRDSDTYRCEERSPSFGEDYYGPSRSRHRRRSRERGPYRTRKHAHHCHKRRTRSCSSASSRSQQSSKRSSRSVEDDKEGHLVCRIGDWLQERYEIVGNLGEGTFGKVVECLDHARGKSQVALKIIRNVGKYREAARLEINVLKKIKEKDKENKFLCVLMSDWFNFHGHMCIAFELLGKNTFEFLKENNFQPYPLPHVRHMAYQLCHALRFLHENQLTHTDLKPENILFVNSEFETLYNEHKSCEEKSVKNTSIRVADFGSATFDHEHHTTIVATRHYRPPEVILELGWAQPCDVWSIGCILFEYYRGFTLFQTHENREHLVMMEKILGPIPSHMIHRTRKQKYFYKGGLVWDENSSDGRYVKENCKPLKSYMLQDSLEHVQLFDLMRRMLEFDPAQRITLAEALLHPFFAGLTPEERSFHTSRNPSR

[5] = target: Dual specificity protein kinase CLK2 (Homo sapiens, UniProt P49760); experiment: Inhibition of recombinant CLK2 (unknown origin) using Ser/Thr 6 peptide as substrate incubated for 1 hr in presence of ATP by FRET assay
Chain of Dual specificity protein kinase CLK2 (P49760 whole entry): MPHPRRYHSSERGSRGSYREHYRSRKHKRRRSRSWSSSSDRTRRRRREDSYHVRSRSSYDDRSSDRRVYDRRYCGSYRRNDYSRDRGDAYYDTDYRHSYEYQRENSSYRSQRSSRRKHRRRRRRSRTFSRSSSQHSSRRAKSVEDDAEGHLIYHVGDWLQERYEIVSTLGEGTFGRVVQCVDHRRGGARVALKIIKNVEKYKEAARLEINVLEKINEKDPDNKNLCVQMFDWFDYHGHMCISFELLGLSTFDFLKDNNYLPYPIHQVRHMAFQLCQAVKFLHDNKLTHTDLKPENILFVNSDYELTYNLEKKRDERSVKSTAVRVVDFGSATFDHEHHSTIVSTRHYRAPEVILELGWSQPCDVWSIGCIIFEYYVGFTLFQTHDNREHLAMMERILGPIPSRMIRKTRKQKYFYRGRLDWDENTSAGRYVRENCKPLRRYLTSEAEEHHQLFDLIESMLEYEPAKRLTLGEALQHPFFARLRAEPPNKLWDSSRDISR

[6] = Inhibition of IL1-beta induced MMP3 expression levels in human chondrocytes assessed as MMP3 levels incubated for 2hrs followed by IL1-beta stimulation and measured after overnight incubation by LANCE assay relative to control; format: functional, Chondrocyte
[7] = Induction of chondrogenesis in human MSC assessed as maximum activity at 30 nM incubated for 6 days by rhodamine B and Nile red staining based imaging analysis relative to control; format: functional; settings: BMMSC, 144 h, time 6 day
[8] = Induction of chondrogenesis in human MSC assessed as incubated for 6 days by rhodamine B and Nile red staining based imaging analysis; format: functional; settings: bmmsc
[9] = Induction of chondrogenesis in human MSC assessed as maximum activity at 300 nM incubated for 6 days by rhodamine B and Nile red staining based imaging analysis relative to control; format: functional; settings: BMMSC, 144 h, time 6 day
[10] = Induction of chondrogenesis in human MSC assessed as maximum activity at 10 nM incubated for 6 days by rhodamine B and Nile red staining based imaging analysis relative to control; format: functional; settings: BMMSC, 144 h, time 6 day
[11] = Induction of chondrogenesis in human MSC assessed as maximum activity at 100 nM incubated for 6 days by rhodamine B and Nile red staining based imaging analysis relative to control; format: functional; settings: BMMSC, 144 h, time 6 day

Row | SMILES | EC50 [1] [nM] | EC50 [2] [nM] | EC50 [3] [nM] | EC50 [4] [nM] | EC50 [5] [nM] | EC50 [8] [nM] | Imax [6] [%] | Emax at 0.03 µM [7] [%] | Emax at 0.3 µM [9] [%] | Emax at 0.01 µM [10] [%] | Emax at 0.1 µM [11] [%]
1 | O=C(Nc1cncc(-c2ccc3[nH]nc(-c4nc5c(-c6ccccn6)ccnc5[nH]4)c3n2)c1)c1ccccc1 | > 10000 | 5.1 | > 10000 | > 10000 | – | – | 67 | – | – | – | –
2 | CN1CCN(c2ccc(C(=O)N3CCN(c4cc(C(=O)Nc5cc6cc(-c7cnn(C)c7)ccc6cn5)ccn4)CC3)cn2)CC1 | – | 304 | – | – | 3 | – | – | – | – | – | –
3 | Fc1cccc(-c2cncc3[nH]c(-c4n[nH]c5ncc(-c6cccnc6)cc45)nc23)c1 | 6 | – | 12 | 48 | 5 | 100 | – | – | 157 | – | –
4 | O=C(Nc1ccc(N2CCC(F)(F)C2)nc1)c1n[nH]cc1C#Cc1cccnc1 | > 10000 | 3000 | 21 | > 10000 | 32 | – | 88.5 | – | – | – | –
5 | CN1CCN(c2cc(C(=O)Nc3cc4cc(-c5cncs5)ccc4cn3)ccn2)CC1 | – | 423 | – | – | – | – | 100 | 22.3 | – | – | –
6 | Cn1cc(-c2ccc3cnc(NC(=O)c4ccc5c(cnn5C)c4)cc3c2)cn1 | – | 3000 | – | 49 | 3 | – | 46.9 | – | – | – | –
7 | CCCC(=O)Nc1cncc(-c2cc3c(-c4nc5c(-c6ccsc6)cncc5[nH]4)n[nH]c3cn2)c1 | 61.5 | – | 8 | 21 | 3 | – | – | 42 | – | – | –
8 | CN(C)Cc1cncc(-c2cnc3[nH]nc(-c4cc5c(-c6cccc(F)c6)nccc5[nH]4)c3c2)c1 | 1170 | – | 91 | 74 | 4 | 10 | – | – | – | 110 | –
9 | Cc1n[nH]c2ccc(-c3cncc(NC4CCNCC4)n3)cc12 | 256 | 1050 | 9 | 1420 | 1 | – | – | – | – | – | –
10 | Cc1n[nH]c2ccc(-c3cncc(O[C@H]4CCNCC4(F)F)n3)cc12 | 227 | – | 2 | 313 | 3 | 300 | – | – | 82.1 | – | –
11 | CN(C)CCNc1cc(F)cc(-c2cccc3[nH]c(-c4n[nH]c5cnc(-c6cncc(NC(=O)C(C)(C)C)c6)cc45)cc23)c1 | 386 | – | 45 | 49 | 6 | 10 | – | 87.3 | – | – | –
12 | O=C(Nc1c[nH]nc1C(=O)Nc1cccnc1)c1cccnc1 | 20.5 | 38.9 | 12 | – | – | – | 100 | – | – | – | –
13 | O=C(Nc1cc2cc(-c3cnco3)cnc2cn1)C1CCNCC1 | > 10000 | 35.8 | 40 | > 10000 | > 10000 | – | – | – | – | – | –
14 | O=C(Nc1c[nH]nc1-c1nc2c(-c3cccc(F)c3)cccc2[nH]1)c1cccnc1 | 2.9 | 76.5 | 4 | – | – | – | 100 | – | – | – | –
15 | COc1cncc(C#Cc2c[nH]nc2C(=O)Nc2ccc(OC3CCN(C)CC3)nc2)c1 | 3570 | 3000 | 9 | > 10000 | – | – | 3.4 | – | – | – | –
16 | Cc1nnc(-c2ccc3cnc(NC(=O)c4ccnc(C5=CCN(C)CC5)c4)cc3c2)s1 | – | 143 | – | 14 | 2 | – | 35.3 | – | – | – | –
17 | Cc1n[nH]c2ccc(-c3cncc(O[C@H]4CCNC[C@@H]4F)n3)cc12 | 672 | – | 11 | 1720 | 1 | 100 | – | – | – | – | 44.9
18 | O=C(CC1CCNCC1)Nc1cncc(-c2cnc3[nH]nc(-c4cc5c(-c6ccncc6)ccnc5[nH]4)c3c2)c1 | > 10000 | – | 21 | > 10000 | 11 | – | – | 26.7 | – | – | –
19 | Cc1n[nH]c2ccc(-c3cncc(O[C@H]4CCNC[C@H]4F)n3)cc12 | 834 | – | 21 | 1760 | 5 | 30 | – | 54.2 | – | – | –
20 | CN1CCC(C(=O)Nc2cc3cc(-c4cnsc4)cnc3cn2)CC1 | > 10000 | 3000 | – | > 10000 | > 10000 | – | – | – | – | – | –

More lines, main results first:

Row | EC50 [1] [nM] | EC50 [2] [nM] | EC50 [3] [nM] | EC50 [4] [nM] | EC50 [5] [nM] | EC50 [8] [nM] | SMILES | Imax [6] [%] | Emax at 0.03 µM [7] [%] | Emax at 0.3 µM [9] [%] | Emax at 0.01 µM [10] [%] | Emax at 0.1 µM [11] [%]
21 | 1030 | 4 | 1 | 717 | 8 | – | O=C(N[C@H]1C[C@@H]1c1ccccc1)c1n[nH]c2ccc(-c3cncc(CN4CCCCC4)c3)cc12 | – | – | – | – | –
22 | 19.1 | – | 80 | 90 | 21 | 10 | Fc1cccc(-c2ccnc3[nH]c(-c4n[nH]c5ccc(-c6cncc(CN7CCC(F)(F)C7)c6)cc45)nc23)c1 | – | 85.8 | – | – | –
23 | > 10000 | – | 11 | 1900 | 9 | – | CN1CCN(c2nccc3[nH]c(-c4n[nH]c5ncc(-c6cncc(CN7CCCCC7)c6)cc45)cc23)CC1 | – | – | 50.7 | – | –
24 | 3380 | 6.7 | > 10000 | > 10000 | – | – | O=C(Nc1cncc(-c2ccc3[nH]nc(-c4nc5c(-c6cccs6)cccc5[nH]4)c3n2)c1)C1CC1 | 72 | – | – | – | –
25 | 809 | 3000 | 45 | 3950 | 37 | – | Cc1n[nH]c2ccc(-c3cncc(N[C@H](CO)Cc4cccc(C(F)(F)F)c4)n3)cc12 | – | – | – | – | –
26 | 42 | 20.5 | 14 | – | – | – | CCCC(=O)Nc1cncc(-c2ccc3[nH]nc(-c4nc5c(N6CCCCC6)cncc5[nH]4)c3c2)c1 | 39 | 77.3 | – | – | –
27 | – | 1060 | – | 78 | 10 | – | CN1CCN(c2cc(CC(=O)Nc3cc4cc(-c5cnn(C)c5)ccc4cn3)ccn2)CC1 | 100 | – | – | – | –
28 | 119 | 811 | 27 | 3700 | 24 | – | Cc1ccc(C(=O)Nc2c[nH]nc2C(=O)Nc2ccc(OCCN3CCCC3)nc2)cn1 | 23.7 | – | – | – | –
29 | – | 19.1 | – | 66 | 4 | – | Cn1cc(-c2ccc3cnc(NC(=O)c4cnc5ccccc5c4)cc3c2)cn1 | 41.2 | – | – | – | –
30 | 1080 | 0.2 | > 10000 | > 10000 | – | – | O=C(Nc1cncc(-c2ccc3[nH]nc(-c4nc5c(-c6cccc(F)c6)cccc5[nH]4)c3n2)c1)C1CC1 | 70 | – | – | – | –
31 | 23 | 13.6 | 2 | – | – | – | c1cncc(-c2ccc3[nH]nc(-c4nc5c(N6CCOCC6)cncc5[nH]4)c3c2)c1 | 100 | 90.4 | – | – | –
32 | 1270 | – | 40 | 49 | 4 | – | CN(C)CCNc1cc(F)cc(-c2cccc3[nH]c(-c4n[nH]c5ccc(-c6cncc(CN7CCCCC7)c6)nc45)cc23)c1 | – | 48.5 | – | – | –
33 | 11 | – | 12 | 45 | 17 | – | Oc1cncc(-c2ccc3[nH]nc(-c4nc5c(-c6cccc(F)c6)ccnc5[nH]4)c3c2)c1 | – | – | – | – | 52.2
34 | 1390 | 1.6 | 4 | 6150 | 10 | – | O=C(N[C@H]1C[C@@H]1c1ccccc1)c1n[nH]c2ccc(-c3cccnc3)cc12 | – | – | – | – | –
35 | 445 | – | 5 | 52 | 1 | 10 | CCC(=O)Nc1cncc(-c2ccc3[nH]nc(-c4cc5c(N6CCCCC6)nccc5[nH]4)c3c2)c1 | – | 244 | – | – | –
36 | 662 | 3000 | 10 | – | – | – | O=C(Nc1c[nH]nc1C(=O)Nc1ccc(N2CCCCC2)nc1)c1cncc(OC2CCNCC2)c1 | 71 | – | – | – | –
37 | 12 | 111 | 12 | – | – | 100 | CC(C)CC(=O)Nc1cncc(-c2ccc3[nH]nc(-c4nc5c(-c6cccnc6)cncc5[nH]4)c3c2)c1 | 100 | – | – | – | 198
38 | 1210 | 3000 | 19 | > 10000 | – | – | COc1cncc(C#Cc2c[nH]nc2C(=O)Nc2ccc(OCCN3CCCC3)nc2)c1 | 2.4 | – | – | – | –
39 | 165 | 319 | 5 | – | – | – | c1cnc2cc(-c3n[nH]c4ccc(-c5cncc(CN6CCCCC6)c5)cc34)[nH]c2c1 | 100 | – | – | – | –
40 | 210 | 616 | 2 | – | – | – | O=C(Nc1cccnc1)c1n[nH]c2ccc(-c3cncc(CN4CCS(=O)(=O)CC4)c3)cc12 | 8.6 | – | – | – | –
41 | 471 | 3000 | 2 | – | – | – | CO[C@H]1CC[C@H](C(=O)Nc2cc3cc(-c4cnn(C)c4CN4CCCCC4)ccc3cn2)CC1 | 0.2 | – | – | – | –
42 | 706 | 35 | 3 | – | – | – | Cn1ncc(-c2ccc3cnc(NC(=O)C4CCN(C(=O)c5ccccc5)CC4)cc3c2)c1CN1CCCCC1 | 51 | – | – | – | –
